From patent US5428041A, “Antihypercholesterolemic bis-trifluoromethyl-substituted imidazolines and derivatives thereof” (The Du Pont Merck Pharmaceutical Company, priority 1992, dated 1995)
pIC50: −log10 of the molar value. Counter-ions that a name gives are not always drawn.

Legend:
[1] = target: T1, Acyl-CoA: Cholesterol Acyltransferase (ACAT) (Rattus norvegicus, UniProt Q7TQM4); test: Inhibition of Acyl-CoA:Cholesterol Acyltransferase (ACAT) in hepatic microsomes; assay type: biochemical, Sprague Dawley rat; conditions: rat hepatic microsomes, 14C-oleoyl-CoA, 37° C., pH 7.4; read-out: In Vitro ACAT IC50
T1 construct: centrifuged at 105,000×g for 1 hour to pellet the microsomes; from tissue; host or cells: liver microsomes of fasted male Sprague Dawley rats
T1 sequence (Q7TQM4 1-524): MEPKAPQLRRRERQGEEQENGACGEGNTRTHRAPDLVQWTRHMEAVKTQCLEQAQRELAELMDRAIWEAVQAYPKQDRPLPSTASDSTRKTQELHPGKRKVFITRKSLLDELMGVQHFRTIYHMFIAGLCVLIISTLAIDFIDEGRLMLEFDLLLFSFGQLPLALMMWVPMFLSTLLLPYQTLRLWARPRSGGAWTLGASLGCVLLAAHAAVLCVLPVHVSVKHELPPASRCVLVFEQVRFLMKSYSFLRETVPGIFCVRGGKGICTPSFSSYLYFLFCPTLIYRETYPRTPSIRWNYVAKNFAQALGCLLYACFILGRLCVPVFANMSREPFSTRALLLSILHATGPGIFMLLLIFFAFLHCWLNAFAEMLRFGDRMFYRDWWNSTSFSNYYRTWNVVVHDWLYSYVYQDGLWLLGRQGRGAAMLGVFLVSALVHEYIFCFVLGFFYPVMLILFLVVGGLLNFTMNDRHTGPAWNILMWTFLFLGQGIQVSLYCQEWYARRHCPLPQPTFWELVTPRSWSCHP
Protocol: A. Assay of the Inhibition of Acyl-CoA: Cholesterol Acyltransferase (ACAT) in Hepatic Microsomes
The ability of the compounds to inhibit ACAT, the enzyme responsible for the intracellular synthesis of cholesteryl esters, was tested as follows. Male Sprague Dawley rates weighing 150-300 g were fed rat chow ad libitum. The animals were fasted for twenty-four hours prior to being sacrificed by decapitation. The livers were perfused in situ with 50 ml of cold 0.25M sucrose, excised and homogenized in three volumes of 0.1M phosphate buffer, pH 7.4, that contained 0.5 mM EDTA (ethylenediaminetetraacetic acid), 1.0 mM glutathione, 0.25M sucrose and 20 mM leupeptin. Microsomes were obtained by differential centrifugation; the supernatant from an initial spin at 15,000×g for 15 minutes was centrifuged at 105,000×g for 1 hour to pellet the microsomes. The microsomes were suspended in homogenization buffer, reisolated by centrifugation, and stored at -70° C. Microsomes were used within one month of preparation.
The control assay in a final volume of 200 μl consisted of 200 μg of microsomal protein, 75 μM ^14 C-oleoyl-CoA (10,000 dpm/nmol) in 0.1M phosphate, pH 7.4, that contained 1 mM glutathione. Compounds were added in 5-10 μl of DMSO (dimethyl sulfoxide or ethanol) and additional controls were run with DMSO or ethanol only. All components, except the oleoyl-CoA, were preincubated for 15 min. at 37° C. prior to the initiation of the reaction by the addition of oleoyl CoA. The assay was terminated after 10 min by the addition of 4 ml of chloroform:methanol (2:1, v/v). 20,000 dpm of ^3 H-cholesteryl oleate and 10 μg of unlabeled cholesteryl oleate and oleic acid were added as an internal standard and carrier, respectively. After allowing 10 min. for lipid extraction, 0.8 ml of deionized water was added to separate the solution into two phases. The lower chloroform phase was collected, dried under nitrogen and resuspended in 100 μl of chloroform. The sample containing the neutral lipids was spotted onto a Gelman ITLC-SA polysilicic acid gel-impregnated sheet, which was developed using a hexane: diethyl ether: acetic acid (170:30:1 v/v/v) mobile phase. The lipids were visualized by their interaction with iodine vapor and the cholesteryl ester spot was scraped into a scintillation vial and counted. The specific activity of ACAT in the control incubation averaged 260 pmol/min/mg microsomal protein. The inhibition of ACAT activity by the compounds is shown in Table 7; the data are expressed as the concentration at which ACAT activity is inhibited by 50% (IC50).

[2] = system: murine macrophage-like cell line J744.A1; test: Inhibition of cholesterol esterification in mammalian cells (macrophage); assay type: cell-based; conditions: Mus musculus; J744.A1 macrophage-like cells loaded with ac-LDL, 14C oleic acid
Protocol: B. Assay of the Inhibition of Cholesterol Esterification in Mammalian Cells The esterification of cholesterol was determined in the murine macrophage-like cell line J744.A1. Cells were seeded in 35 mm wells at a density of 300,000 cells per well in 2 mls of Dulbecco's Modified Eagle Medium (DMEM) supplemented with 10% fetal bovine serum (FBS). Cells were incubated at 37° C. in an atmosphere of 5% CO2 and 93% humidity. After 24 hours the media was changed to 0.68 mls 10% FBS-DMEM containing 34 μg of acetylated human low density lipoprotein (ac-LDL) to increase the intracellular concentration of cholesterol and promote esterification. At 41 hours, various inhibitors were added to the cells in DMSO (10 μl/ml maximum). At 43 hours, the cells were pulsed with 0.1 mM ^14 C oleic acid (10,000 dpm/nmol) complexed with BSA (bovine serum albumin) to follow cholesterol ester formation. The experiment was terminated at 45 hours by washing the monolayers 3 times with 3 ml of Tris-buffered saline at 4° C. The lipids were extracted by incubating the monolayers with 1.5 ml of hexane: isopropanol (3:2, v/v) for 30 min. under gentle agitation. During this period, 10,000 dpm ^3 H-cholesteryl linoleate and 10 μg of cholesteryl oleate were added as an internal standard and carrier respectively. The organic solvent was remoted and the cells were washed with an additional 1.0 ml of hexane: isopropanol which was combined with the original extract. The cells were allowed to dry overnight, digested with 1.5 ml of 0.2 N sodium hydroxide for 1 hour and an aliquot of the solubilized protein used for protein determination using the Lowry method. […] Individual lipids were visualized with iodine and the cholesteryl ester spot cut out and transferred to scintillation vials to determine the amount of radioactivity.

[3] = Water solubility of polymorphs; assay type: physicochemical; conditions: compared with the higher melting polymorph
[4] = system: ACAT; test: Systemic ACAT inhibitory activity; assay type: in vivo; conditions: oral, compared to the higher melting form
[5] = Oral bioavailability of polymorphs; assay type: in vivo; conditions: compared to the higher melting form

SMILES	pIC50 [1]	pIC50 [2]	water solubility relative to the 181°-183° C. melting polymorph [3] [fold]	systemic ACAT inhibitory activity [4]	oral bioavailability [5]
CN(C(=O)c1ccc(C#N)cc1)C1N(C)C(c2ccc(C#N)cc2)=NC1(C(F)(F)F)C(F)(F)F (centres unmarked) [Example R, N-[4,4-bis(trifluoromethyl)-4,5-dihydro-1-methyl-2-[4-cyanophenyl]-1H-imidazol-5-yl]-N-methyl-4-cyanobenzamide]	5.70	4.89			
CN(C(=O)c1ccc(C#N)cc1)C1N(C)C(c2ccc(C#N)cc2)=NC1(C(F)(F)F)C(F)(F)F (centres unmarked) [132°-134° melting polymorph, N-[4,4-bis[trifluoromethyl)-4,5-dihydro-1-methyl-2-[4-cyanophenyl]-1H-imidazol-5-yl]-N-methyl-4-cyanobenzamide]			3	improved systemic ACAT inhibitory activity	greater oral bioavailability
CN(C(=O)C12CCC(C)(C(=O)O1)C2(C)C)C1N(C)C(c2ccc(F)cc2)=NC1(C(F)(F)F)C(F)(F)F (single isomer, unassigned) [Example 25]	4.39	4.01			
CCCCCCC(=O)N(C)C1N(C)C(c2ccc(F)cc2)=NC1(C(F)(F)F)C(F)(F)F (centres unmarked) [Example 16, N-[4,4-bis(trifluoromethyl)-2-(4-fluorophenyl)-4,5-dihydro-1-methyl-1H-imidazol-5-yl]-N-methylheptanamide hydrochloride]	5.70	4.77			
Cc1ccc(C(=O)N=C2N(C)C(c3ccc(C)cc3)=NC2(C(F)(F)F)C(F)(F)F)cc1 [Example 5]	4.70	4.21			

More lines, main results first:

pIC50 [1]	pIC50 [2]	SMILES	water solubility relative to the 181°-183° C. melting polymorph [3] [fold]	systemic ACAT inhibitory activity [4]	oral bioavailability [5]
5.00	4.89	CCCCCCC(=O)N(C)C1N(C)C(c2ccc(N3CCCCC3)cc2)=NC1(C(F)(F)F)C(F)(F)F (centres unmarked) [Example 33, N-[4,4-bis(trifluoromethyl)-4,5-dihydro-1-methyl-2-[4-(1-piperidinyl)phenyl]-1H-imidazol-5-yl]-N-methylheptanamide, hydrochloride]			
5.10	4.74	CN(C(=O)c1ccc([N+](=O)[O-])cc1)C1N(C)C(c2ccc(F)cc2)=NC1(C(F)(F)F)C(F)(F)F (centres unmarked) [Example 14, N-[4,4-bis(trifluoromethyl)-2-(4-fluorophenyl)-4,5-dihydro-1-methyl-1H-imidazol-5-yl]-N-methyl-4-nitrobenzamide]			
5.00	4.89	CN1C(c2ccc(F)cc2)=NC(C(F)(F)F)(C(F)(F)F)C1NC(=O)c1ccc(N2CCCCC2)cc1 (centres unmarked) [Example 31, N-[4,4-bis(trifluoromethyl)-2-(4-fluorophenyl)-4,5-dihydro-1-methyl-1H-imidazol-5-yl]-4-(1-piperidinyl) benzamide]			
